Assay results published in patent US9708628B2, “Cationic lipid having improved intracellular kinetics” (NOF CORPORATION, priority 2011, dated 2017).

Key:
Format in all cases: cell-based
HT1080 cells [1] = experiment: Decapsulation efficiency over time (3, 6, 9, 12 hr); conditions: 3, 6, 9, 12 hr after transfection
Description: For MEND preparation, Rhodamine-labeled pDNA prepared by the method of [Experimental Example 1] (4) was used. For preparation of MEND encapsulating the rhodamine-labeled pDNA, 50% of the pDNA solution described in [Experimental Example 1] (1) was replaced by the rhodamine-labeled pDNA. In addition, the lipid constituting the MEND was labeled with fluorescence by the method described in [Experimental Example 1] (3). MENDs having a composition of B-2-4 […]:DOPE:Chol=3:3:4, B-2 […]:SOPE:Chol=5:3:2 were prepared by the method described in [Experimental Example 1] (2). For the preparation, PEG2000-DMG was used as PEG lipid, and MEND solutions corresponding to 0.55 mM of the lipid concentration were prepared.
HT1080 cells were plated on a glass bottom dish at 5×10^4 cells/2 mL/dish 24 hr before. MEND was diluted with DMEM (FBS 10%+) to achieve pDNA 1.6 μg/2 mL and transfected into cells. 3, 6, 9, 12 hr later, the cells were washed twice with heparin solution (20 units/mL, 2 mL), Krebs buffer (1 mL) was added, and the images at 3, 6, 9, 12 hr after the transfection were obtained by a confocal laser scan microscope.
Rhodamine-labeled pDNA and lipid membrane of MEND were shown in pseudo colors of red and green, respectively. The decapsulation efficiency was calculated according to the following formula.

HT1080 cells [2] = experiment: Influence of endosomal acidification inhibitor BafA1 (Kronos Dio); conditions: 0.5 μM BafA1
Experimental: MENDs of B-2-4 (Example 4), B-2 (Example 1) were prepared according to [Experimental Example 1] (1), (2), [Experimental Example […]]. For the preparation, PEG2000-DMG was used as PEG lipid, and MEND solutions corresponding to 0.55 mM of the lipid concentration were prepared.
HT1080 cells were plated on a 3.5 cm cell culture dish at 4×10^4 cells/2 mL/dish 24 hr before. The medium was changed to DMEM (FBS 10%+) containing 0.5 μM BafA1 (Bafilomycin A1) 30 min before transfection. 30 min later, various MENDs were added to the dish at 1.6 μg/2 mL/dish based on the pDNA amount. 3 hr after the transfection, the medium was changed to DMEM (FBS 10%+, Phenol red free) containing a final concentration 200 μM of D-luciferin potassium. According to the Kronos Dio package insert, the luminescence amount was measured for 2 min every 20 min and taken as the luciferase activity (RLU/2 min).

HT1080 cells [3] = experiment: Inhibitory effect of retinoic acid (RA) on gene expression; conditions: 0, 5, 7.5, 10 μM RA
Experimental: MENDs of B-2-4 (Example 4), B-2 (Example 1) were prepared according to [Experimental Example 1] (1), (2), [Experimental Example 18]. For the preparation, PEG2000-DMG was used as PEG lipid, and MEND solutions corresponding to 0.55 mM of the lipid concentration were prepared.
HT1080 cells were plated on a 3.5 cm cell culture dish at 4×10^4 cells/2 mL/dish 24 hr before, various MENDs were diluted with DMEM (FBS 10%+, Phenol red free) containing a final concentration 200 μM of D-luciferin potassium and 0, 5, 7.5, 10 μM RA (sigma) to achieve 1.6 μg/2 mL/dish based on the pDNA amount and transfection was performed. According to the Kronos Dio package insert, the luminescence amount was measured for 2 min every 20 min and taken as the luciferase activity (RLU/2 min).

HT1080 cells [4] = experiment: Intracellular uptake amount of MEND (NBD-DOPE labeled lipid, FACS); conditions: NBD-DOPE label, lipid 27.5 nmol/well, 1 hr, DMEM (FBS+)
Experimental: Using B-2 (Example 1), B-2-1 (Comparative Example 1), and DODAP (Comparative Example 2) as cationic lipids, MENDs having a composition of cationic lipid:SOPE:Chol=3:4:3 were prepared by the method described in [Experimental Example 1] (2). For the preparation, PEG2000DSG was used as PEG lipid, and MEND solutions corresponding to 0.55 mM of the lipid concentration were prepared. For cationic MEND, lipids having a composition of DOTAP (Comparative Example 3):DOPE:Chol:=3:4:3 were used, and the cationic MEND was prepared according to the method described in [Experimental Example 1] (3). The lipids of various MENDs were labeled with fluorescence according to the method described in [Experimental Example 1] (5).
HT1080 cells were plated on a 6-well plate at 2×10^5 cells/2 mL/well 24 hr before, various sample MENDs were diluted with DMEM (FBS+) to a lipid concentration of 27.5 nmol/l mL/well and transfected into the well. After 1 hr, MEND-containing DMEM was removed, and the cells were washed twice with heparin (20 units/mL, 1 mL), and further once with PBS(−) (1 mL). 0.05% Trypsin solution (500 μL) was added, and the mixture was stood in an incubator at 37° C. for 3 min. […] The suspension was passed through a 44 μm nylon mesh immediately before the measurement, and the fluorescence intensity of intracellular NBD was measured.

## CC1=C(/C=C/C(C)=C/C=C/C(C)=C/C(=O)OCCCN(C)CCSSCCN(C)CCCOC(=O)/C=C(C)/C=C/C=C(C)/C=C/C2=C(C)CCCC2(C)C)C(C)(C)CCC1 [Example B-2-4]
HT1080 cells [1]
  decapsulation efficiency: gradual decapsulation with the passage of time
HT1080 cells [2]
  activity under endosomal acidification inhibition using BafA1: inhibited
HT1080 cells [3]
  gene expression activity in presence of RA: decreased by RA in a concentration dependent manner

## CCCCCCCC/C=C\CCCCCCCC(=O)OCC(CN(C)C)OC(=O)CCCCCCC/C=C\CCCCCCCC (centres unmarked) [DODAP, reference compound]
HT1080 cells [4]
  intracellular uptake amount of MEND: extremely low as compared to the MENDs using B-2-1 and DOTAP

## CCCCCCCCCCCCCC(=O)OCCCN(C)CCSSCCN(C)CCCOC(=O)CCCCCCCCCCCCC [Example B-2]
HT1080 cells [4]
  intracellular uptake amount of MEND: extremely low as compared to the MENDs using B-2-1 and DOTAP
HT1080 cells [1]
  decapsulation efficiency: good decapsulation from early stages
HT1080 cells [2]
  activity under endosomal acidification inhibition using BafA1: inhibited
HT1080 cells [3]
  gene expression activity in presence of RA: not decreased
